Laboratory results as given in patent US11254686B1 (Corvus Pharmaceuticals, Inc., priority 2017, dated 2022).

Columns and labels:
adenosine A2B receptor = adenosine A2B receptor (Homo sapiens (Human), UniProt P29275); experiment: Adenosine receptor activity assay (Table 1), A2B activity; format: biochemical; conditions: for Ratio: A2A activity to A2B activity (A2A/A2B); for IC50: read-out: Ave A2B cAMP IC50
adenosine A2A receptor = adenosine A2A receptor (Homo sapiens (Human), UniProt P29274); experiment: Adenosine receptor activity assay (Table 1), A2A activity; format: biochemical; conditions: read-out: Ave A2A cAMP IC50
adenosine A1 receptor = adenosine A1 receptor (Homo sapiens (Human), UniProt P30542); experiment: Adenosine receptor activity assay (Table 1), A1 cAMP; format: cell-based
adenosine A3 receptor = adenosine A3 receptor (Homo sapiens (Human), UniProt P0DMS8); experiment: Adenosine receptor activity assay (Table 1), A3 cAMP; format: cell-based
[1] = tested on: CYP 450 (isoform not given); experiment: CYP450 inhibition at 10 μM; format: in vitro ADME; conditions: read-out: CYP 450 % INH @ 10 μM
[2] = Hepatocyte intrinsic clearance, rat; format: in vitro ADME; conditions: hepatocytes
[3] = Hepatocyte intrinsic clearance, human; format: in vitro ADME; conditions: hepatocytes

Sequence of adenosine A3 receptor (P0DMS8 whole entry, canonical isoform): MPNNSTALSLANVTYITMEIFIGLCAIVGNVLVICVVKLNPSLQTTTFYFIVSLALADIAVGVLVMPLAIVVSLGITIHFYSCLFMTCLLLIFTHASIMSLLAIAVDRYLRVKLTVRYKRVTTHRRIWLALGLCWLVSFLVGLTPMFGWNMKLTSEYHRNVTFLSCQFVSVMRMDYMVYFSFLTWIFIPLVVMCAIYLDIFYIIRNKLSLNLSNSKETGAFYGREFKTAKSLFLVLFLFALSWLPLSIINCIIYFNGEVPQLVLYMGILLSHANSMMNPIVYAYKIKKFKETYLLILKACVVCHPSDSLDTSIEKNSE
Sequence of adenosine A2A receptor (P29274 whole entry): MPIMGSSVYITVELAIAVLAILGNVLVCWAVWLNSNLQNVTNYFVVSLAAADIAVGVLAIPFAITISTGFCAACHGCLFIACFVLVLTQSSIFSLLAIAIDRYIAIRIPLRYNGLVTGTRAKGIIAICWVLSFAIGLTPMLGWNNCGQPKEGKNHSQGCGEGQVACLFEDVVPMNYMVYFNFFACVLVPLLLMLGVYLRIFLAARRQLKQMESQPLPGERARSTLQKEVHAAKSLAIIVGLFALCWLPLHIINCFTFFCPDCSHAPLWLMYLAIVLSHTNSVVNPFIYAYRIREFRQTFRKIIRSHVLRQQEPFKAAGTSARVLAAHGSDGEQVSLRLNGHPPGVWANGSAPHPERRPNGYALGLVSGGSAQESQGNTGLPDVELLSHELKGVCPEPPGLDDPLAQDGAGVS
Sequence of adenosine A2B receptor (P29275 whole entry): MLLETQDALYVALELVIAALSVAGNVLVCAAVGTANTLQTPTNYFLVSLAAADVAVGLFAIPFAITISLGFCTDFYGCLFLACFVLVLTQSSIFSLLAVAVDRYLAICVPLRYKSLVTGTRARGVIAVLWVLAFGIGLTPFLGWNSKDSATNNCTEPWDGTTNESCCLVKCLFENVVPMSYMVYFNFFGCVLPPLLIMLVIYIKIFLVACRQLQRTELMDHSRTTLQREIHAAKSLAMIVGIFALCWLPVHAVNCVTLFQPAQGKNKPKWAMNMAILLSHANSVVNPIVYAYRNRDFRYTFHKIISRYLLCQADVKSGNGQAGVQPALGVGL
Sequence of adenosine A1 receptor (P30542 whole entry): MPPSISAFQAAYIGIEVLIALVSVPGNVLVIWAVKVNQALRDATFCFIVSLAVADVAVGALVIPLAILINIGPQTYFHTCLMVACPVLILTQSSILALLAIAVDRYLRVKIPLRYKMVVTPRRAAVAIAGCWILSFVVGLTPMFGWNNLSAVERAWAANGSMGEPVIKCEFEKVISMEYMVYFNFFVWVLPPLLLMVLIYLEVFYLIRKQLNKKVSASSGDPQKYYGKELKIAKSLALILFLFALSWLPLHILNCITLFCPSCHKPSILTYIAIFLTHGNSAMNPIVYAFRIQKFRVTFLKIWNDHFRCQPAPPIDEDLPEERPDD

| SMILES | Ratio (adenosine A2B receptor) | IC50 (adenosine A2B receptor) | IC50 (adenosine A2A receptor) | IC50 (adenosine A1 receptor) | IC50 (adenosine A3 receptor) | inhibition at 10 µM [1] | hepatocyte CLint [2] | hepatocyte CLint [3] |
| --- | --- | --- | --- | --- | --- | --- | --- | --- |
| CNc1cc2nc(N[C@@H](C)c3cncc(F)c3)nc(C(=O)N3CCC3)c2s1 [Example Z211, (S)-Azetidin-1-yl(2-((1-(5-fluoropyridin-3-yl)ethyl)amino)-6-(methylamino)thieno[3,2-d]pyrimidin-4-yl)methanone] | 201.82 | < 10 nM | 100 to 500 nM | > 500 nM | 50 to 100 nM | 67% | 53.2 µL/min/1e6 cells | 15.8 µL/min/1e6 cells |
| C[C@H](Nc1nc(C(=O)N2CC[C@H](CO)C2)c2sccc2n1)c1cncc(F)c1 [Example Z294, (2-(((S)-1-(5-Fluoropyridin-3-yl)ethyl)amino)thieno[3,2-d]pyrimidin-4-yl)((S)-3-(hydroxymethyl)pyrrolidin-1-yl)methanone] | 84.08 | < 10 nM | 100 to 500 nM | > 500 nM | > 500 nM | 37.6% | 17.2 µL/min/1e6 cells | 15.6 µL/min/1e6 cells |
| Cc1cc2nc(N[C@@H](C)c3ccccn3)nc(C(=O)N3CC[C@H](O)C3)c2s1 [Example Z282, ((S)-3-Hydroxypyrrolidin-1-yl)(6-methyl-2-(((S)-1-(pyridin-2-yl)ethyl)amino)thieno[3,2-d]pyrimidin-4-yl)methanone] | 77.76 | 10 to 50 nM | > 500 nM | > 500 nM | > 500 nM | -18.8% | 17.2 µL/min/1e6 cells | 4.11 µL/min/1e6 cells |
| CNc1cc2nc(N[C@@H](C)c3cncc(F)c3)nc(C(=O)N3CC[C@@H](O)C3)c2s1 [Example Z224, (2-(((S)-1-(5-Fluoropyridin-3-yl)ethyl)amino)-6-(methylamino)thieno[3,2-d]pyrimidin-4-yl)((R)-3-hydroxypyrrolidin-1-yl)methanone] | 340.19 | < 10 nM | > 500 nM | > 500 nM | 50 to 100 nM | 52.5% | 4.61 µL/min/1e6 cells | 16.1 µL/min/1e6 cells |
| C[C@H](Nc1nc(C(=O)N2CC[C@H](F)C2)c2sccc2n1)c1cncc(F)c1 [Example Z225, (2-(((S)-1-(5-Fluoropyridin-3-yl)ethyl)amino)thieno[3,2-d]pyrimidin-4-yl)((S)-3-fluoropyrrolidin-1-yl)methanone] | 43.99 | < 10 nM | 100 to 500 nM | > 500 nM | > 500 nM | 57% | 21.1 µL/min/1e6 cells | 44.5 µL/min/1e6 cells |
| CO[C@H]1CCN(C(=O)c2nc(N[C@@H](C)c3cncc(F)c3)nc3cc(C)sc23)C1 [Example Z301, (2-(((S)-1-(5-Fluoropyridin-3-yl)ethyl)amino)-6-methylthieno[3,2-d]pyrimidin-4-yl)((S)-3-methoxypyrrolidin-1-yl)methanone] | 83.47 | < 10 nM | 100 to 500 nM | > 500 nM | 50 to 100 nM | 52% | 51.7 µL/min/1e6 cells | 23.8 µL/min/1e6 cells |
| C[C@H](Nc1nc(C(=O)N2CCCC2)c2sccc2n1)c1cncc(Cl)c1 [Example Z231, (S)-(2-((1-(5-Chloropyridin-3-yl)ethyl)amino)thieno[3,2-d]pyrimidin-4-yl)(pyrrolidin-1-yl)methanone] | 88.17 | < 10 nM | 100 to 500 nM | > 500 nM | > 500 nM | 75% | 41.1 µL/min/1e6 cells | 72.7 µL/min/1e6 cells |
| C[C@H](Nc1nc(C(=O)N2CC(O)C2)c2sccc2n1)c1cncc(F)c1 [Example Z198, (S)-(2-((1-(5-Fluoropyridin-3-yl)ethyl)amino)thieno[3,2-d]pyrimidin-4-yl)(3-hydroxyazetidin-1-yl)methanone] | 52.81 | < 10 nM | 100 to 500 nM | > 500 nM | > 500 nM | 27% | 20.6 µL/min/1e6 cells | 6.78 µL/min/1e6 cells |
| Cc1cc2nc(N[C@@H](C)c3ccccn3)nc(C(=O)N3CC[C@@H](O)C3)c2s1 [Example Z298, ((R)-3-Hydroxypyrrolidin-1-yl)(6-methyl-2-(((S)-1-(pyridin-2-yl)ethyl)amino)thieno[3,2-d]pyrimidin-4-yl)methanone] | 64.00 | < 10 nM | 100 to 500 nM | > 500 nM | > 500 nM | -13.9% | 18.8 µL/min/1e6 cells | 5.35 µL/min/1e6 cells |
| CO[C@H]1CCN(C(=O)c2nc(N[C@@H](C)c3cncc(F)c3)nc3ccsc23)C1 [Example Z252, (2-(((S)-1-(5-Fluoropyridin-3-yl)ethyl)amino)thieno[3,2-d]pyrimidin-4-yl)((S)-3-methoxypyrrolidin-1-yl)methanone] | 19.78 | 10 to 50 nM | 100 to 500 nM | > 500 nM | > 500 nM | 55.9% | – | – |
| CO[C@@H]1CCN(C(=O)c2nc(N[C@@H](C)c3cncc(F)c3)nc3ccsc23)C1 [Example Z251, (2-(((S)-1-(5-Fluoropyridin-3-yl)ethyl)amino)thieno[3,2-d]pyrimidin-4-yl)((R)-3-methoxypyrrolidin-1-yl)methanone] | 19.74 | < 10 nM | 100 to 500 nM | > 500 nM | > 500 nM | 49.1% | – | – |
| Cc1cc2nc(N[C@@H](C)c3cccnc3)nc(C(=O)N3CCCC3)c2s1 [Example Z213, (S)-(6-Methyl-2-((1-(pyridin-3-yl)ethyl)amino)thieno[3,2-d]pyrimidin-4-yl)(pyrrolidin-1-yl)methanone] | 127.82 | < 10 nM | 100 to 500 nM | > 500 nM | > 500 nM | 90% | 25.3 µL/min/1e6 cells | 59.6 µL/min/1e6 cells |
| Cc1cc2nc(N[C@@H](C)c3cccnc3)nc(C(=O)N3CCC3)c2s1 [Example Z283, (S)-Azetidin-1-yl(6-methyl-2-((1-(pyridin-3-yl)ethyl)amino)thieno[3,2-d]pyrimidin-4-yl)methanone] | 54.37 | < 10 nM | 100 to 500 nM | > 500 nM | > 500 nM | 80.5% | 42.7 µL/min/1e6 cells | 26.5 µL/min/1e6 cells |
| CNc1cc2nc(N[C@@H](C)c3cncc(F)c3)nc(C(=O)N3CCCC3)c2s1 [Example Z210, (S)-(2-((1-(5-Fluoropyridin-3-yl)ethyl)amino)-6-(methylamino)thieno[3,2-d]pyrimidin-4-yl)(pyrrolidin-1-yl)methanone] | 162.88 | < 10 nM | 100 to 500 nM | > 500 nM | 50 to 100 nM | 46% | 51.7 µL/min/1e6 cells | 20.3 µL/min/1e6 cells |
| Cc1cc2nc(N[C@@H](C)c3cncc(F)c3)nc(C(=O)NC[C@H](C)O)c2s1 [Example Z277, 2-(((S)-1-(5-Fluoropyridin-3-yl)ethyl)amino)-N—((S)-2-hydroxypropyl)-6-methylthieno[3,2-d]pyrimidine-4-carboxamide] | 167.29 | < 10 nM | 100 to 500 nM | 50 to 100 nM | 50 to 100 nM | – | 65.9 µL/min/1e6 cells | 16.4 µL/min/1e6 cells |
